Test results published in US20120121540A1 (priority 2007, published 2012).

Experiment: HCV replicon assay (luciferase reporter, ET cell line)
Assay type: cell-based
Conditions: Hepatitis C virus, HCV replicon luciferase activity in ET cells
Outline: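 EC50 and, via WST-1 cytotoxicity, TC50 were fitted with a Hill-coefficient equation to % inhibition across 10 two-fold dilutions. Compounds at 0.1 nM-[…] with 0.5% DMSO were applied 24 h post-seeding to replicon-bearing ET cells (luc-ubi-neo/NS3-5B, adaptive mutations). Firefly luciferase signal was measured after 48-72 h.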

SMILES	inhibition at 10 µM
COC(=O)c1cccc(C2CCN(C(=O)c3nc4c(C(F)(F)F)cc(-c5ccoc5)cn4c3Cl)C2)c1 (stereo not shown) [Compound 452, 3-(1-(3-Chloro-6-furan-3-yl-8-trifluoromethyl-imidazo[1,2-a]pyridine-2-carbonyl)-pyrrolidin-3-yl)-benzoic acid methyl ester]	87.6%
O=C(c1nc2c(C(F)(F)F)cc(-c3ccoc3)cn2c1Cl)N1CCC(c2cccnc2)C1 (stereo not shown) [Compound 453, (3-Chloro-6-furan-3-yl-8-trifluoromethyl-imidazo[1,2-a]pyridin-2-yl)-(3-pyridin-3-yl-pyrrolidin-1-yl)-methanone]	97.6%
O=C(c1nc2c(C(F)(F)F)cc(-c3ccoc3)cn2c1Cl)N1CCC(c2ccncc2)C1 (stereo not shown) [Compound 454, (3-Chloro-6-furan-3-yl-8-trifluoromethyl-imidazo[1,2-a]pyridin-2-yl)-(3-pyridin-4-yl-pyrrolidin-1-yl)-methanone]	96.1%
O=C(c1nc2c(C(F)(F)F)cc(-c3ccoc3)cn2c1Cl)N1CCC(c2cccc(Cl)c2)C1 (stereo not shown) [Compound 460, (3-Chloro-6-furan-3-yl-8-trifluoromethyl-imidazo[1,2-a]pyridin-2-yl)-[3-(3-chloro-phenyl)-pyrrolidin-1-yl]-methanone]	88%
O=C(c1nc2c(C(F)(F)F)cc(-c3cn[nH]c3)cn2c1Br)N1CCC(c2ccccc2)C1 (stereo not shown) [Compound 461, (3-Bromo-6-(1H-pyrazol-4-yl)-8-trifluoromethyl-imidazo[1,2-a]pyridin-2-yl)-(3-phenyl-pyrrolidin-1-yl)-methanone]	94.3%
Nc1cccc(C2CCN(C(=O)c3nc4c(C(F)(F)F)cc(-c5ccoc5)cn4c3Cl)C2)c1 (stereo not shown) [Compound 462, [3-(3-Amino-phenyl)-pyrrolidin-1-yl]-(3-chloro-6-furan-3-yl-8-trifluoromethyl-imidaz [1,2-a]pyridin-2-yl)-methanone]	86.5%
COc1ccccc1C1CCN(C(=O)c2nc3c(C(F)(F)F)cc(-c4ccoc4)cn3c2Cl)C1 (stereo not shown) [Compound 463, (3-Chloro-6-furan-3-yl-8-trifluoromethyl-imidaz [1,2-a]pyridin-2-yl)-[3-(2-methoxy-phenyl)-pyrrolidin-1-yl]-methanone]	80.6%
O=C(c1nc2c(C(F)(F)F)cc(-c3cn[nH]c3)cn2c1Cl)N1CCC(c2ccccc2)C1 (stereo not shown) [Compound 464, [3-Chloro-6-(1H-pyrazol-4-yl)-8-trifluoromethyl-imidazo[1,2-a]pyridin-2-yl]-(3-phenyl-pyrrolidin-1-yl)-methanone]	93.7%
O=C(c1nc2c(C(F)(F)F)cc(-c3cn[nH]c3)cn2c1Cl)N1CC[C@@H](c2ccccc2)C1 [Compound 465, [3-Chloro-6-(1H-pyrazol-4-yl)-8-trifluoromethyl-imidazo[1,2-a]pyridin-2-yl]-(3-(S)-phenyl-pyrrolidin-1-yl)-methanone]	97.9%
O=C(c1nc2c(C(F)(F)F)cc(-c3cn[nH]c3)cn2c1Cl)N1CC[C@H](c2ccccc2)C1 [Compound 466, [3-Chloro-6-(1H-pyrazol-4-yl)-8-trifluoromethyl-imidazo[1,2-a]pyridin-2-yl]-(3-(R)-phenyl-pyrrolidin-1-yl)-methanone]	90.4%
O=C(c1nc2c(C(F)(F)F)cc(-c3ccoc3)cn2c1Cl)N1CCC(c2ccccn2)C1 (stereo not shown) [Compound 468, (3-Chloro-6-furan-3-yl-8-trifluoromethyl-imidazo[1,2-a]pyridin-2-yl)-(3-pyridin-2-yl-pyrrolidin-1-yl)-methanone]	93.9%
O=C(c1nc2c(C(F)(F)F)cc(-c3ccoc3)cn2c1Cl)N1N=C(c2ccoc2)CC1c1cc(Br)ccc1O (stereo not shown) [Compound 472, [5-(5-Bromo-2-hydroxy-phenyl)-3-furan-3-y-4,5-dihydro-pyrazol-1-yl]-(3-chloro-6-furan-3-yl-8-trifluoromethyl-imidazo[1,2-a]pyridin-2-yl)-methanone]	86.6%
Fc1cccc(C2CCN(Cc3cn4cc(-c5ccoc5)cc(C(F)(F)F)c4n3)C2)c1 (stereo not shown) [Compound 474, 2-[3-(3-Fluoro-phenyl)-pyrroidin-1-ylmethyl]-6-furan-3-yl-8-trifluoromethyl-imidazo[1,2-a]pyridine]	0.7%
Cc1noc(C2CCN(C(=O)c3nc4c(C(F)(F)F)cc(-c5ccoc5)cn4c3Cl)C2)n1 (stereo not shown) [Compound 475, (3-Chloro-6-furan-3-yl-8-trifluoromethyl-imidaz[1,2-a]pyridin-2-yl)-[3-(3-methyl-[1,2,4]oxadiazol-5-yl)-pyrrolidin-1-yl]-methanone]	93%
Cc1noc(C2CCN(C(=O)c3nc4c(C(F)(F)F)cc(-c5cn[nH]c5)cn4c3Cl)C2)n1 (stereo not shown) [Compound 476, [3-Chloro-6-(1H-pyrazol-4-yl)-8-trifluoromethyl-imidazo[1,2-a]pyridin-2-yl]-[3-(3-methyl-[1,2,4]oxadiazol-5-yl)-pyrrolidin-1-yl]-methanone]	72%
O=C(c1nc2c(C(F)(F)F)cc(-c3ccoc3)cn2c1Cl)N1CCC(c2ccccc2)=N1 [Compound 477, (3-Chloro-6-furan-3-yl-8-trifluoromethyl-imidazo[1,2-a]pyridin-2-yl)-(3-phenyl-4,5-dihydro-pyrazol-1-yl)-methanone]	97.6%

SMILES	inhibition at 10 µM
CC(C)(C)OC(=O)N[C@@H]1CCN(C(=O)c2nc3c(C(F)(F)F)cc(-c4ccoc4)cn3c2Cl)C1 [Compound 478, [1-(3-Chloro-6-furan-3-yl-8-trifluoromethyl-imidazo[1,2-a]pyridine-2-carbonyl)-pyrrolidin-3-yl]-carbamic acid tert-butyl ester]	4.9%
CS(=O)(=O)N[C@@H]1CCN(C(=O)c2nc3c(C(F)(F)F)cc(-c4ccoc4)cn3c2Cl)C1 [Compound 480, N-[1-(3-Chloro-6-furan-3-yl-8-trifluoromethyl-imidazo[1,2-a]pyridine-2-carbonyl)-pyrrolidin-3-yl]-methanesulfonamide]	47.7%
O=C1OC(c2ccccc2)CN1Cc1cn2cc(-c3ccoc3)cc(C(F)(F)F)c2n1 (stereo not shown) [Compound 483, 3-(6-Furan-3-yl-8-trifluoromethyl-imidazo[1,2-a]pyridin-2-ylmethyl)-5-phenyl-oxazolidin-2-one]	99.9%
O=C(NCc1cccs1)c1nc2c(C(F)(F)F)cc(-c3cn[nH]c3)cn2c1-c1cn[nH]c1 [Compound 485, 3,6-Bis-(1H-pyrazol-4-yl)-8-trifluoromethyl-imidazo[1,2-a]pyridine-2-carboxylic acid (thiophen-2-ylmethyl)-amide]	58.9%
O=C(c1nc2c(C(F)(F)F)cc(-c3cn[nH]c3)cn2c1-c1cn[nH]c1)N1CCC(c2cccc(F)c2)C1 (stereo not shown) [Compound 486, [3,6-Bis-(1H-pyrazol-4-yl)-8-trifluoromethyl-imidazo[1,2-a]pyridin-2-yl]-[3-(3-fluoro-phenyl)-pyrrolidin-1-yl]-methanone]	65.8%
O=C(c1nc2c(C(F)(F)F)cc(-c3ccoc3)cn2c1Cl)N1CCC1c1ccccc1 (stereo not shown) [Compound 487, (3-Chloro-6-furan-3-yl-8-trifluoromethyl-imidazo[1,2-a]pyridin-2-yl)-(2-phenyl-azetidin-1-yl)-methanone]	94.2%
O=C(c1nc2c(C(F)(F)F)cc(-c3ccoc3)cn2c1Cl)N1CC(c2ccc(C(F)(F)F)cc2)C1 [Compound 488]	60.2%
CC(C)(C)OC(=O)NC1CN(C(=O)c2nc3c(C(F)(F)F)cc(-c4ccoc4)cn3c2Cl)C1 [Compound 489, [1-(3-Chloro-6-furan-3-yl-8-trifluoromethyl-imidazo[1,2-a]pyridine-2-carbonyl)-azetidin-3-yl]-carbamic Acid Tert-butyl Ester]	33%
CS(=O)(=O)NC1CN(C(=O)c2nc3c(C(F)(F)F)cc(-c4ccoc4)cn3c2Cl)C1 [Compound 491, N-[1-(3-Chloro-6-furan-3-yl-8-trifluoromethyl-imidazo[1,2-a]pyridine-2-carbonyl)-azetidin-3-yl]-methanesulfonamide]	92.4%
O=C(c1nc2c(C(F)(F)F)cc(-c3ccoc3)cn2c1Cl)N1CC(NS(=O)(=O)c2ccccc2)C1 [Compound 492, N-[1-(3-Chloro-6-furan-3-yl-8-trifluoromethyl-imidazo[1,2-a]pyridine-2-carbonyl)-azetidin-3-yl]-benzenesulfonamide]	97.4%
O=C(c1nc2c(C(F)(F)F)cc(-c3ccoc3)cn2c1Cl)N1CC(NS(=O)(=O)Cc2ccccc2)C1 [Compound 493, N-[1-(3-Chloro-6-furan-3-yl-8-trifluoromethyl-imidazo[1,2-a]pyridine-2-carbonyl)-azetidin-3-yl]-C-phenyl-methanesulfonamide]	91.4%
O=C(c1nc2c(C(F)(F)F)cc(-c3ccoc3)cn2c1Cl)N1CC(NS(=O)(=O)c2ccccc2F)C1 [Compound 494, N-[1-(3-Chloro-6-furan-3-yl-8-trifluoromethyl-imidazo[1,2-a]pyridine-2-carbonyl)-azetidin-3-yl]-2-fluoro-benzenesulfonamide]	88.5%
O=C(c1nc2c(C(F)(F)F)cc(-c3ccoc3)cn2c1Cl)N1CC(NS(=O)(=O)c2cccc(F)c2)C1 [Compound 495, N-[1-(3-Chloro-6-furan-3-yl-8-trifluoromethyl-imidazo[1,2-a]pyridine-2-carbonyl)-azetidin-3-yl]-3-fluoro-benzenesulfonamide]	94.2%
O=C(c1nc2c(C(F)(F)F)cc(-c3ccoc3)cn2c1Cl)N1CC(NS(=O)(=O)c2ccc(F)cc2)C1 [Compound 496, N-[1-(3-Chloro-6-furan-3-yl-8-trifluoromethyl-imidazo[1,2-a]pyridine-2-carbonyl)-azetidin-3-yl]-4-fluoro-benzenesulfonamide]	94.3%
CC(C)S(=O)(=O)NC1CN(C(=O)c2nc3c(C(F)(F)F)cc(-c4ccoc4)cn3c2Cl)C1 [Compound 497, Propane-2-sulfonic acid [1-(3-chloro-6-furan-3-yl-8-trifluoromethyl-imidazo[1,2-a]pyridine-2-carbonyl)-azetidin-3-yl]-amide]	97.8%
